The results in this text go back to patent US6423689B1, “Peptidyl calcium channel blockers” (Warner-Lambert Company, priority 1997, dated 2002).

For the first assay, the target named is T1, N-type Ca2+ channels in IMR-32 cells (Homo sapiens, UniProt Q00975).
T1 construct: host or cells: IMR-32 cells, differentiated with dibutyryl cAMP and bromodeoxyuridine
T1 sequence (Q00975 whole entry): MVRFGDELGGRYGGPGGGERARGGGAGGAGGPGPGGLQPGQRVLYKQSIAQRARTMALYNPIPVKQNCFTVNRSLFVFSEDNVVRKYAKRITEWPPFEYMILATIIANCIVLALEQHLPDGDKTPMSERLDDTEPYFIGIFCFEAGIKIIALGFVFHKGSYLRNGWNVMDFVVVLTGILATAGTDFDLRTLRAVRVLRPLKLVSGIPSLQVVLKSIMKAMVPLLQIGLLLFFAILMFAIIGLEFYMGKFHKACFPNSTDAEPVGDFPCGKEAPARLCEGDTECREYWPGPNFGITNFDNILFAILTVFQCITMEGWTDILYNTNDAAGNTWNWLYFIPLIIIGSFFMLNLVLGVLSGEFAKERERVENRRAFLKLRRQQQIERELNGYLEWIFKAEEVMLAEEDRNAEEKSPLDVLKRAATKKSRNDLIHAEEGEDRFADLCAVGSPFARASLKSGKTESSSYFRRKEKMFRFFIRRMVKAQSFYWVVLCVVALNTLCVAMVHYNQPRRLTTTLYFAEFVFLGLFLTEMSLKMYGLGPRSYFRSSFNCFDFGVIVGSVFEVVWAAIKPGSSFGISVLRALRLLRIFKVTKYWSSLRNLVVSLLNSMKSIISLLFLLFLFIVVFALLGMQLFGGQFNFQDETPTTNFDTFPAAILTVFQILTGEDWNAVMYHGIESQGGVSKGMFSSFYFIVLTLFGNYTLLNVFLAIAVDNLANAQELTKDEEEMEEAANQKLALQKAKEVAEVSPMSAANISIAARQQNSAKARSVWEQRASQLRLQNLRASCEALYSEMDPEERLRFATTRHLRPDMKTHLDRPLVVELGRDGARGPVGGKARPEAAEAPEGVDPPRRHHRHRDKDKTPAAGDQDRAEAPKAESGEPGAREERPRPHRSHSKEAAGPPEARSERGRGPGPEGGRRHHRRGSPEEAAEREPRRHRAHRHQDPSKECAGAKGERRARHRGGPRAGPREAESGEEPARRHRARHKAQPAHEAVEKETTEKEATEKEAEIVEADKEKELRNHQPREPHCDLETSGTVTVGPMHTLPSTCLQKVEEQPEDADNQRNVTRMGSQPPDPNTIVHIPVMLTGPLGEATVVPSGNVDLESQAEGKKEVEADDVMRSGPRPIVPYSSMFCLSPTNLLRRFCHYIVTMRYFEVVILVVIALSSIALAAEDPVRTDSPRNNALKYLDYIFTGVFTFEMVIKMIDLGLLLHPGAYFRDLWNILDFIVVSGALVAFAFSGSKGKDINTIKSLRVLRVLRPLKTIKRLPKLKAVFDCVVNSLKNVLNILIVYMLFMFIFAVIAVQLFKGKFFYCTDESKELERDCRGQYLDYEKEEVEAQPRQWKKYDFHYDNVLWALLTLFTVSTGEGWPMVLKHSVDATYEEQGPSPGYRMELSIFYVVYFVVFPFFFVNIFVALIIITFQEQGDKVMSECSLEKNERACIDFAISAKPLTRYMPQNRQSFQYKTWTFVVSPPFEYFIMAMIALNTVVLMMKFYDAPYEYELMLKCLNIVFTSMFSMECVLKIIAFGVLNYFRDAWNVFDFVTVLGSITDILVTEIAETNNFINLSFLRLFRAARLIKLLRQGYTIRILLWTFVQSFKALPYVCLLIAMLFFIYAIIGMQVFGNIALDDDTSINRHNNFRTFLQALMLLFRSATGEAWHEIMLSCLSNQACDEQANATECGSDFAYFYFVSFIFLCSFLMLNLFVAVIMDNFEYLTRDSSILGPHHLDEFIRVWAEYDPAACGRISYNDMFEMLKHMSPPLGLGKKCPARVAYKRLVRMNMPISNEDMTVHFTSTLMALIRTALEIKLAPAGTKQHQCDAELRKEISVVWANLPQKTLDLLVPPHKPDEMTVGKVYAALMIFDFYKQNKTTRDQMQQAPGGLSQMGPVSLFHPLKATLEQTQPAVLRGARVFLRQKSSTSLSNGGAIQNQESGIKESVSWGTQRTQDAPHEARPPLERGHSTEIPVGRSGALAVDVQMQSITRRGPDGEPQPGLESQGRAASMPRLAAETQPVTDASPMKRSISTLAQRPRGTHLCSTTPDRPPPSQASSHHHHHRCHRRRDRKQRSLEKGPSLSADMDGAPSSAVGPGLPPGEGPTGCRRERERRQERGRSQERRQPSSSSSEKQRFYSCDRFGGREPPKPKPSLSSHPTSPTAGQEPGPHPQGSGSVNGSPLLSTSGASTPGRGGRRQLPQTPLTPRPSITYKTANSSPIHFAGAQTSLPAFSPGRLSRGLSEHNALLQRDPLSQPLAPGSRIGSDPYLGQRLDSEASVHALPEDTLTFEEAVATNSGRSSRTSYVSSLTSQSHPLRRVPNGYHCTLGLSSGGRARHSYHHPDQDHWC
T1 sequence (P54289 25-956 partner limits assumed): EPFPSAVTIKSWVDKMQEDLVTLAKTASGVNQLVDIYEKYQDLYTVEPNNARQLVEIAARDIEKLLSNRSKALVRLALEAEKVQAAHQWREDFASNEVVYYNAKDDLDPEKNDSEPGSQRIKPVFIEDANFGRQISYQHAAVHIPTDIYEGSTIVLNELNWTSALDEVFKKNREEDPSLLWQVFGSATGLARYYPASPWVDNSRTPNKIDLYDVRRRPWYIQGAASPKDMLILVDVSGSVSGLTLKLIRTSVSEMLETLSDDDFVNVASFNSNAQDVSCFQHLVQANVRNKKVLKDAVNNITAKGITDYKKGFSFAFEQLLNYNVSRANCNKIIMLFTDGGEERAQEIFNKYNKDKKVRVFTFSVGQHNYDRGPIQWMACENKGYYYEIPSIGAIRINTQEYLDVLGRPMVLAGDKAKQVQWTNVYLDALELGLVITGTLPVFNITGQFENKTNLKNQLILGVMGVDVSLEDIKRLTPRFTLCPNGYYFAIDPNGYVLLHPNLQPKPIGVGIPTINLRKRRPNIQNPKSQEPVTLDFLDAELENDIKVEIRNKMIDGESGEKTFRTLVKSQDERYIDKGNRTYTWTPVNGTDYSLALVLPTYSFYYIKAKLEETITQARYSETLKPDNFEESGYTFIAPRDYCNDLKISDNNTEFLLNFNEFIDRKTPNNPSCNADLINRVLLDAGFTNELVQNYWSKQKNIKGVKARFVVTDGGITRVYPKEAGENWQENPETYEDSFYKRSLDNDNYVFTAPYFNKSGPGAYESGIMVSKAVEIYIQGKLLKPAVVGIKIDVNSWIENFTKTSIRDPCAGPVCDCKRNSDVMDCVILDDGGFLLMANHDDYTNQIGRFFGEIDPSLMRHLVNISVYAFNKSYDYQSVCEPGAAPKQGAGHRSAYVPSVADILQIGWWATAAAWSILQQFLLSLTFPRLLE
T1 sequence (P54289 957-1103 partner limits assumed): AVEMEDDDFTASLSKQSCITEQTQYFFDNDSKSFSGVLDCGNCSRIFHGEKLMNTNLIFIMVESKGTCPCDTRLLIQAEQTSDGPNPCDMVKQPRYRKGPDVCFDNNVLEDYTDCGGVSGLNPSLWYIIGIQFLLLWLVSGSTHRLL
T1 sequence (P54284 whole entry partner): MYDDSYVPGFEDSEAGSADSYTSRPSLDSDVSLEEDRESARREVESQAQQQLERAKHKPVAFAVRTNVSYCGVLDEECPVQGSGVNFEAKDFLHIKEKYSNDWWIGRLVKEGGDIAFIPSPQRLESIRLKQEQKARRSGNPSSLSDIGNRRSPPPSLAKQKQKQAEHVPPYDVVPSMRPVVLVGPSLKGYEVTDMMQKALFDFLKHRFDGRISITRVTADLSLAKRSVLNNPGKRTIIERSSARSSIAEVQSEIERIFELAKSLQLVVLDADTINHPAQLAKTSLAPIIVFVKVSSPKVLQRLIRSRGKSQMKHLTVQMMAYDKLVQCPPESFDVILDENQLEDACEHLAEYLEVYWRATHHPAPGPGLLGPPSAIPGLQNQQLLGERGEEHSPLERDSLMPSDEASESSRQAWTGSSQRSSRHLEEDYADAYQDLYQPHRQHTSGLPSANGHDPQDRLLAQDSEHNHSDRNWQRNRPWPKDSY
Description: Inhibition of N-type calcium flux in IMR-32 cells (Indo-1 fluorescence, nitrendipine present). In kind it is cell-based. As to conditions: 1 μM. In outline:
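With L-type flux blocked by 5 μM nitrendipine, N-type Ca2+ entry was read as the Indo-1 emission ratio (400/490 nm, excitation 350 nm) at 30° C after KCl depolarization.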
In the case of `CC(C)C[C@H](NC(=O)c1ccc(F)cc1)C(=O)N[C@@H](Cc1ccc(OCc2ccccc2)cc1)C(=O)OC(C)(C)C` (relative stereo) [Example 94, [S-(R*,R*)]-3-(4-Benzyloxy-phenyl)-2-[2-(4-fluoro-benzoylamino)-4-methyl-pentanoylamino]-propionic acid tert-butyl ester], the “Inhibition of Calcium Flux in IMR-32 Cells % Inhibition at 1 μM” value turned out to be 29%.

In the case of `COc1ccc(C(=O)N[C@@H](CC(C)C)C(=O)N[C@@H](Cc2ccc(OCc3ccccc3)cc2)C(=O)OC(C)(C)C)cc1` (relative stereo) [Example 95, [S-(R*,R*)]-3-(4-Benzyloxy-phenyl)-2-[2-(4-methoxy-benzoylamino)-4-methyl-pentanoylamino]-propionic acid tert-butyl ester], the “Inhibition of Calcium Flux in IMR-32 Cells % Inhibition at 1 μM” value is 27%.

For the compound `COc1cccc(C(=O)N[C@@H](CC(C)C)C(=O)N[C@@H](Cc2ccc(OCc3ccccc3)cc2)C(=O)OC(C)(C)C)c1` (relative stereo) [Example 96, [S-(R*,R*)]-3-(4-Benzyloxy-phenyl)-2-[2-(3-methoxy-benzoylamino)-4-methyl-pentanoylamino]-propionic acid tert-butyl ester], the “Inhibition of Calcium Flux in IMR-32 Cells % Inhibition at 1 μM” value came to 33%.

Take `CC(C)C[C@H](NC(=O)c1ccc2c(c1)OCO2)C(=O)N[C@@H](Cc1ccc(OCc2ccccc2)cc1)C(=O)OC(C)(C)C` (relative stereo) [Example 97, [S-(R*,R*)]-2-{2-[(Benzo[1,3]dioxole-5-carbonyl)-amino]-4-methyl-pentanoylamino}-3-(4-benzyloxy-phenyl)-propionic acid tert-butyl ester]: the “Inhibition of Calcium Flux in IMR-32 Cells % Inhibition at 1 μM” value came out at 30%.

Regarding `COc1ccccc1C(=O)N[C@@H](CC(C)C)C(=O)N[C@@H](Cc1ccc(OCc2ccccc2)cc1)C(=O)OC(C)(C)C` (relative stereo) [Example 98, [S-(R*,R*)]-3-(4-Benzyloxy-phenyl)-2-[2-(2-methoxy-benzoylamino)-4-methyl-pentanoylamino]-propionic acid tert-butyl ester], the “Inhibition of Calcium Flux in IMR-32 Cells % Inhibition at 1 μM” value turned out to be 34%.

For `CC(C)C[C@H](NC(=O)c1ccc2ccccc2c1)C(=O)N[C@@H](Cc1ccc(OCc2ccccc2)cc1)C(=O)OC(C)(C)C` (relative stereo) [Example 99, [S-(R*,R*)]-3-(4-Benzyloxy-phenyl)-2-{4-methyl-2-[(naphthalene-2-carbonyl)-amino]pentanoylamino}-propionic acid tert-butyl ester], the “Inhibition of Calcium Flux in IMR-32 Cells % Inhibition at 1 μM” value is reported as 19%.

For the compound `COc1ccc(C(=O)N[C@@H](CC(C)C)C(=O)N[C@@H](Cc2ccc(OCc3ccccc3)cc2)C(=O)OC(C)(C)C)cc1OC` (relative stereo) [Example 100, [S-(R*,R*)]-3-(4-Benzyloxy-phenyl)-2-[2-(3,4-dimethoxy-benzoylamino)-4-methyl-pentanoylamino]-propionic acid tert-butyl ester], the “Inhibition of Calcium Flux in IMR-32 Cells % Inhibition at 1 μM” value turned out to be 18%.

As for `COc1ccc(S(=O)(=O)N[C@@H](CC(C)C)C(=O)N[C@@H](Cc2ccc(OCc3ccccc3)cc2)C(=O)OC(C)(C)C)cc1` (relative stereo) [Example 103, [S-(R*,R*)]-3-(4-Benzyloxy-phenyl)-2-[2-(4-methoxy-benzenesulfonylamino)-4-methyl-pentanoylamino]-propionic acid tert-butyl ester], the “Inhibition of Calcium Flux in IMR-32 Cells % Inhibition at 1 μM” value is recorded as 28%.

For `CC(C)C[C@H](NS(=O)(=O)c1ccc(F)cc1)C(=O)N[C@@H](Cc1ccc(OCc2ccccc2)cc1)C(=O)OC(C)(C)C` (relative stereo) [Example 104, [S-(R*,R*)]-3-(4-Benzyloxy-phenyl)-2-[2-(4-fluoro-benzenesulfonylamino)-4-methyl-pentanoylamino]-propionic acid tert-butyl ester], the “Inhibition of Calcium Flux in IMR-32 Cells % Inhibition at 1 μM” value came to 35%.

`Cc1ccccc1S(=O)(=O)N[C@@H](CC(C)C)C(=O)N[C@@H](Cc1ccc(OCc2ccccc2)cc1)C(=O)OC(C)(C)C` (relative stereo) [Example 105, [S-(R*,R*)]-3-(4-Benzyloxy-phenyl)-2-[4-methyl-2-(toluene-2-sulfonylamino)-pentanoylamino]-propionic acid tert-butyl ester]: the “Inhibition of Calcium Flux in IMR-32 Cells % Inhibition at 1 μM” value is given as 29%.

Regarding `CC(C)C[C@H](NS(=O)(=O)c1cc(Cl)cc(Cl)c1)C(=O)N[C@@H](Cc1ccc(OCc2ccccc2)cc1)C(=O)OC(C)(C)C` (relative stereo) [Example 106, [S-(R*,R*)]-3-(4-Benzyloxy-phenyl)-2-[2-(3,5-dichloro-benzenesulfonylamino)-4-methylpentanoylamino]-propionic acid tert-butyl ester], the “Inhibition of Calcium Flux in IMR-32 Cells % Inhibition at 1 μM” value stood at 32%.

The same assay, now with this note: 10 μM.
On to `CC(C)C[C@H](NS(=O)(=O)c1cccc2nsnc12)C(=O)C[C@H](Cc1ccc(OCc2ccccc2)cc1)C(=O)OC(C)(C)C` (relative stereo) [Example 102, [S-(R*,R*)]-5-(Benzo[1,2,5]thiadiazole-4-sulfonylamino)-2-(4-benzyloxybenzyl)-7-methyl-4-oxo-octanoic acid tert-butyl ester], for which the “Inhibition of Calcium Flux in IMR-32 Cells % Inhibition at 10 μM” value was 75%.

As to `CC(C)C[C@H](NS(=O)(=O)c1cccs1)C(=O)N[C@@H](Cc1ccc(OCc2ccccc2)cc1)C(=O)OC(C)(C)C` (relative stereo) [Example 107, [S-(R*,R*)]-3-(4-Benzyloxy-phenyl)-2-[4-methyl-2-(thiophene-2-sulfonylamino)-pentanoylamino]-propionic acid tert-butyl ester], the “Inhibition of Calcium Flux in IMR-32 Cells % Inhibition at 10 μM” value is 57%.

With `CC(C)C[C@H](NS(=O)(=O)c1ccc2cccnc2c1)C(=O)N[C@@H](Cc1ccc(OCc2ccccc2)cc1)C(=O)OC(C)(C)C` (relative stereo) [Example 109, [S-(R*,R*)]-3-(4-Benzyloxy-phenyl)-2-[4-methyl-2-(quinoline-7-sulfonylamino)-pentanoylamino]-propionic acid tert-butyl ester], the “Inhibition of Calcium Flux in IMR-32 Cells % Inhibition at 10 μM” value came out at 56%.

`Cc1nn(C)c(Cl)c1S(=O)(=O)N[C@@H](CC(C)C)C(=O)N[C@@H](Cc1ccc(OCc2ccccc2)cc1)C(=O)OC(C)(C)C` (relative stereo) [Example 110, [S-(R*,R*)]-3-(4-Benzyloxy-phenyl)-2-[2-(5-chloro-1,3-dimethyl-1H-pyrazole-4-sulfonylamino)-4-methyl-pentanoylamino]-propionic acid tert-butyl ester]: the “Inhibition of Calcium Flux in IMR-32 Cells % Inhibition at 10 μM” value was 76%.

In the case of `CC(C)C[C@H](NC(=O)Cc1c[nH]c2ccccc12)C(=O)C[C@H](Cc1ccc(OCc2ccccc2)cc1)C(=O)OC(C)(C)C` (relative stereo) [Example 113, [S-(R*,R*)]-2-(4-Benzyloxy-benzyl)-5-(2-1H-indol-3-yl-acetylamino)-7-methyl-4-oxo-octanoic acid tert-butyl ester], the “Inhibition of Calcium Flux in IMR-32 Cells % Inhibition at 10 μM” value was determined as 83%.

For `CCCCCCC(=O)N[C@@H](CC(C)C)C(=O)N[C@@H](Cc1ccc(OCc2ccccc2)cc1)C(=O)OC(C)(C)C` (relative stereo) [Example 114, [S-(R*,R*)]-3-(4-Benzyloxy-phenyl)-2-(2-heptanoylamino-4-methyl-pentanoylamino)-propionic acid tert-butyl ester], the “Inhibition of Calcium Flux in IMR-32 Cells % Inhibition at 10 μM” value is 66%.

In the case of `CC(C)C[C@H](NC(=O)C(C)C)C(=O)N[C@@H](Cc1ccc(OCc2ccccc2)cc1)C(=O)OC(C)(C)C` (relative stereo) [Example 115, [S-(R*,R*)]-3-(4-Benzyloxy-phenyl)-2-(2-isobutyrylamino-4-methyl-pentanoylamino)-propionic acid tert-butyl ester], the “Inhibition of Calcium Flux in IMR-32 Cells % Inhibition at 10 μM” value was determined as 71%.

Regarding `CC(=O)N[C@@H](CC(C)C)C(=O)N[C@@H](Cc1ccc(OCc2ccccc2)cc1)C(=O)OC(C)(C)C` (relative stereo) [Example 116, [S-(R*,R*)]-2-(2-Acetylamino-4-methyl-pentanoylamino)-3-(4-benzyloxy-phenyl)-propionic acid tert-butyl ester], the “Inhibition of Calcium Flux in IMR-32 Cells % Inhibition at 10 μM” value is recorded as 53%.

`CCC(=O)N[C@@H](CC(C)C)C(=O)N[C@@H](Cc1ccc(OCc2ccccc2)cc1)C(=O)OC(C)(C)C` (relative stereo) [Example 117, [S-(R*,R*)]-3-(4-Benzyloxy-phenyl)-2-(4-methyl-2-propionylamino-pentanoylamino)-propionic acid tert-butyl ester]: the “Inhibition of Calcium Flux in IMR-32 Cells % Inhibition at 10 μM” value is listed as 66%.

For `CCCC(=O)N[C@@H](CC(C)C)C(=O)N[C@@H](Cc1ccc(OCc2ccccc2)cc1)C(=O)OC(C)(C)C` (relative stereo) [Example 118, [S-(R*,R*)]-3-(4-Benzyloxy-phenyl)-2-(2-butyrylamino-4-methyl-pentanoylamino)-propionic acid tert-butyl ester], the “Inhibition of Calcium Flux in IMR-32 Cells % Inhibition at 10 μM” value is 80%.

In the case of `CC(C)C[C@H](NC(=O)Cc1cccnc1)C(=O)N[C@@H](Cc1ccc(OCc2ccccc2)cc1)C(=O)OC(C)(C)C` (relative stereo) [Example 119, [S-(R*,R*)]-3-(4-Benzyloxy-phenyl)-2-[4-methyl-2-(2-pyridin-3-yl-acetylamino)pentanoylamino]-propionic acid tert-butyl ester], the “Inhibition of Calcium Flux in IMR-32 Cells % Inhibition at 10 μM” value is recorded as 65%.

Regarding `CC(C)C[C@H](NC(=O)CCc1c[nH]c2ccccc12)C(=O)N[C@@H](Cc1ccc(OCc2ccccc2)cc1)C(=O)OC(C)(C)C` (relative stereo) [Example 120, [S-(R*,R*)]-3-(4-Benzyloxy-phenyl)-2-[2-(3-1H-indol-3-yl-propionylamino)-4-methyl-pentanoylamino]-propionic acid tert-butyl ester], the “Inhibition of Calcium Flux in IMR-32 Cells % Inhibition at 10 μM” value is recorded as 65%.
